Test results taken from PubChem BioAssay AID330 (DTP/NCI, 2004).
“And” between values parts separate entries of the source, which are not always exact repeats. Identical values can stand only once. Inconclusive results and toxic doses are left out.

Tested on: P388 leukemia ip, CD2F1 mice, survival T/C
Assay: NCI In Vivo Anticancer Drug Screen. Data for tumor model P388 Leukemia (intraperitoneal) in CD2F1 (CDF1) mice
Conditions: endpoint: median survival time, higher = longer survival
Procedure, shortened: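 Mice carrying the transplanted tumor received test compound or vehicle. Survival was recorded in each group, and the value is the treated-group measurement divided by that of the vehicle-treated control group.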

[1] = dose: 12.5 mg/kg/injection, schedule: Q01DX009 (ip), vehicle: saline with Tween-80
[2] = dose: 25.0 mg/kg/injection, schedule: Q01DX009 (ip), vehicle: saline with Tween-80
[3] = dose: 50.0 mg/kg/injection, schedule: Q01DX005 (ip), vehicle: Klucel (hydroxypropylcellulose) (HPC)
[4] = dose: 100.0 mg/kg/injection, schedule: Q01DX005 (ip), vehicle: Klucel (hydroxypropylcellulose) (HPC)
[5] = dose: 50.0 mg/kg/injection, schedule: Q01DX009 (ip), vehicle: saline with Tween-80
[6] = dose: 100.0 mg/kg/injection, schedule: Q01DX009 (ip), vehicle: saline with Tween-80

CSc1cc(C)c(O)c(C)c1
T/C (dose: 100.0 mg/kg/injection, schedule: Q04DX003 (ip), vehicle: other): 109 % of control | T/C (dose: 200.0 mg/kg/injection, schedule: Q04DX003 (ip), vehicle: other): 100 % of control | T/C (dose: 400.0 mg/kg/injection, schedule: Q04DX003 (ip), vehicle: other): 100 % of control

CCCOn1nnc2cc(Cl)ccc21
T/C (dose: 6.25 mg/kg/injection, schedule: Q01DX009 (ip), vehicle: saline with Tween-80): 102 % of control | T/C [1]: 96 % of control | T/C [2]: 99 % of control

C[Si](C)(C)C1c2ccccc2-c2[nH]c3ccccc3c21 (configuration not stated)
T/C (dose: 6.25 mg/kg/injection, schedule: Q01DX009 (ip), vehicle: Klucel (hydroxypropylcellulose) (HPC)): 101 % of control | T/C (dose: 12.5 mg/kg/injection, schedule: Q01DX009 (ip), vehicle: Klucel (hydroxypropylcellulose) (HPC)): 87 % of control | T/C (dose: 25.0 mg/kg/injection, schedule: Q01DX009 (ip), vehicle: Klucel (hydroxypropylcellulose) (HPC)): 102 % of control

Cc1c(C)n(-c2ccccc2)c2nc(C)n(-c3ccccc3Cl)c(=N)c12
T/C [3]: 97 % of control | T/C [4]: 90 % of control

CCCCN(CCCC)C(=N)c1c(OC)cccc1OC
T/C (dose: 0.78 mg/kg/injection, schedule: Q01DX005 (ip), vehicle: saline): 104 % of control | T/C (dose: 1.56 mg/kg/injection, schedule: Q01DX005 (ip), vehicle: saline): 99 % of control | T/C (dose: 3.12 mg/kg/injection, schedule: Q01DX005 (ip), vehicle: saline): 96 % of control

COc1ccc(S(=O)(=O)N/N=C/c2cnc[nH]2)cc1
T/C (dose: 12.5 mg/kg/injection, schedule: Q01DX005 (ip), vehicle: Klucel (hydroxypropylcellulose) (HPC)): 100 % of control | T/C (dose: 25.0 mg/kg/injection, schedule: Q01DX005 (ip), vehicle: Klucel (hydroxypropylcellulose) (HPC)): 97 % of control | T/C [3]: 97 % of control | T/C [4]: 88 % of control | T/C (dose: 200.0 mg/kg/injection, schedule: Q01DX005 (ip), vehicle: Klucel (hydroxypropylcellulose) (HPC)): 90 % of control and 94 % of control | T/C (dose: 400.0 mg/kg/injection, schedule: Q01DX005 (ip), vehicle: Klucel (hydroxypropylcellulose) (HPC)): 117 % of control

CC(C)(C)N=C(CCC(C#N)(C#N)CCC(=NC(C)(C)C)Nc1ccc([N+](=O)[O-])cc1)Nc1ccc([N+](=O)[O-])cc1
T/C [5]: 98 % of control | T/C [6]: 95 % of control | T/C (dose: 200.0 mg/kg/injection, schedule: Q01DX009 (ip), vehicle: saline with Tween-80): 88 % of control

O=c1c2ccccc2nc(CCN(CCCl)CCCl)n1-c1ccc(Cl)cc1
T/C (dose: 25.0 mg/kg/injection, schedule: Q01DX001 (ip), vehicle: saline): 106 % of control | T/C (dose: 50.0 mg/kg/injection, schedule: Q01DX001 (ip), vehicle: saline): 113 % of control | T/C (dose: 200.0 mg/kg/injection, schedule: Q01DX001 (ip), vehicle: saline): 164 % of control

CC(O)(c1ccccc1)C1C(c2ccccc2)N1Cc1ccccc1 (configuration not stated)
T/C (dose: 50.0 mg/kg/injection, schedule: Q04DX003 (ip), vehicle: saline sonified): 100 % of control | T/C (dose: 100.0 mg/kg/injection, schedule: Q04DX003 (ip), vehicle: saline sonified): 91 % of control

COc1ccc2cc3c[n+](C)ccc3cc2c1OC
T/C (dose: 12.5 mg/kg/injection, schedule: Q01DX009 (ip), vehicle: water): 118 % of control | T/C (dose: 25.0 mg/kg/injection, schedule: Q01DX009 (ip), vehicle: water): 112 % of control

COC(=O)C1=C(C)NC(C)=C(C(=O)OC)C(N2C(=O)CCC2=O)C1 (configuration not stated)
T/C [1]: 100 % of control | T/C [2]: 91 % of control | T/C [5]: 88 % of control | T/C [6]: 88 % of control

CC(C)COC(=O)N(CCCl)N=O
T/C (dose: 0.62 mg/kg/injection, schedule: Q01DX009 (ip), vehicle: saline with Tween-80): 100 % of control and 111 % of control | T/C (dose: 1.25 mg/kg/injection, schedule: Q01DX001 (ip), vehicle: saline with Tween-80): 103 % of control | T/C (dose: 1.25 mg/kg/injection, schedule: Q01DX009 (ip), vehicle: saline with Tween-80): 108 % of control and 116 % of control | T/C (dose: 2.5 mg/kg/injection, schedule: Q01DX001 (ip), vehicle: saline with Tween-80): 100 % of control | T/C (dose: 2.5 mg/kg/injection, schedule: Q01DX009 (ip), vehicle: saline with Tween-80): 112 % of control and 115 % of control and 120 % of control | T/C (dose: 5.0 mg/kg/injection, schedule: Q01DX001 (ip), vehicle: saline with Tween-80): 100 % of control and 112 % of control | T/C (dose: 5.0 mg/kg/injection, schedule: Q01DX009 (ip), vehicle: saline with Tween-80): 100 % of control and 97 % of control | T/C (dose: 10.0 mg/kg/injection, schedule: Q01DX001 (ip), vehicle: saline with Tween-80): 90 % of control
